Test results taken from ChEMBL document CHEMBL1201862, “PubChem BioAssay data set” (2004).
Active and inactive are the calls of the source.

How the values were obtained:
Paired box protein Pax-8 = Paired box protein Pax-8 (Homo sapiens, UniProt Q06710); experiment: PAX8 transcriptional activity inhibition in RMG-I – RMG-I cells, luciferase, cherry-pick, dose response (AID 687027); assay type: functional, cell-based;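 note: luciferase reporter driven by Pax8 target thyroperoxidase promoter measured by SteadyGlo luminescence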
Sequence of Paired box protein Pax-8 (Q06710 whole entry): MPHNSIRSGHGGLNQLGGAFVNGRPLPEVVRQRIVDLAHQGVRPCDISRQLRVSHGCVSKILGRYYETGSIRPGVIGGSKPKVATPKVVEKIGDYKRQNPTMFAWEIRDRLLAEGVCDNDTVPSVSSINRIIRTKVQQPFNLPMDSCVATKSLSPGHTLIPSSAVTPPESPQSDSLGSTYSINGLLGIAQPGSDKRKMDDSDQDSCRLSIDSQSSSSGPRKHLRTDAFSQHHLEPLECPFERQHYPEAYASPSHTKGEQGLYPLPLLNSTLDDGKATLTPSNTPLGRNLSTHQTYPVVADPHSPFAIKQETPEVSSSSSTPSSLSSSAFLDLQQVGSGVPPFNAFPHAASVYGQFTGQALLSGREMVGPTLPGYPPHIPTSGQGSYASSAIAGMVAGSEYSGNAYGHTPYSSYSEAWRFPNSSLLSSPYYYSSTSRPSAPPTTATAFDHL

[1] = IGROV1 cell killing – plate reader, dry powder samples, PAX8 inhibitor project, dose response (AID 743043); assay type: functional, cell-based; details: IGROV-1
[2] = OVCAR8 cell viability loss – plate reader, dry powder samples, PAX8 project, dose response (AID 743197); assay type: functional, cell-based; details: OVCAR-8
[3] = biological target: DNA dC->dU-editing enzyme APOBEC-3A (Homo sapiens, UniProt P31941); experiment: Dose Response confirmation of small molecule APOBEC3A DNA Deaminase Inhibitors via a fluorescence-based single-stranded DNA deaminase assay. [Related pubchem assays (depositor defined):AID493011, AID493024]; assay type: functional
Sequence of DNA dC->dU-editing enzyme APOBEC-3A (P31941 whole entry): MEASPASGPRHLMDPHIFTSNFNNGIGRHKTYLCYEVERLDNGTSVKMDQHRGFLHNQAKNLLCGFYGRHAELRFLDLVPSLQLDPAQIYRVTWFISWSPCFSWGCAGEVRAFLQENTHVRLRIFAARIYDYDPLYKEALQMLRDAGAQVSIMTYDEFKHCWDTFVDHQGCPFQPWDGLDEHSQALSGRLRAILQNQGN

[4] = biological target: DNA dC->dU-editing enzyme APOBEC-3G (Homo sapiens, UniProt Q9HC16); assay type: functional;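 note: Dose-response counterscreen measuring inhibition of APOBEC3G DNA deaminase activity, run while confirming APOBEC3A inhibitors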
Sequence of DNA dC->dU-editing enzyme APOBEC-3G (Q9HC16 whole entry): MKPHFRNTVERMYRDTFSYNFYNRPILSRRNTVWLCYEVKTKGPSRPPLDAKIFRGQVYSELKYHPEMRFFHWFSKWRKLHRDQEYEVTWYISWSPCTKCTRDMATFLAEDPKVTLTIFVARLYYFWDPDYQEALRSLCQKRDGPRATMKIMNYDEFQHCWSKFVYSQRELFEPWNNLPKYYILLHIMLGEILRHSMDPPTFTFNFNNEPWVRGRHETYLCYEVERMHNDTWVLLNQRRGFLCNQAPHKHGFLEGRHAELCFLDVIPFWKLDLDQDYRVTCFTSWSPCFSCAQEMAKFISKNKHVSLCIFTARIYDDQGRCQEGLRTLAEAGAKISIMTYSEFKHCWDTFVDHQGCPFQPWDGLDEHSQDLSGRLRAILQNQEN

Prothrombin = Prothrombin (Homo sapiens, UniProt P00734); experiment: Thrombin 1536 HTS Dose Response Confirmation. [Related pubchem assays: 1046 (Thrombin 1536 HTS; hits were confirmed in this assay)]; assay type: functional
[5] = biological target: Induced myeloid leukemia cell differentiation protein Mcl-1 (Homo sapiens, UniProt Q07820); assay type: functional
Sequence of Induced myeloid leukemia cell differentiation protein Mcl-1 (Q07820 whole entry): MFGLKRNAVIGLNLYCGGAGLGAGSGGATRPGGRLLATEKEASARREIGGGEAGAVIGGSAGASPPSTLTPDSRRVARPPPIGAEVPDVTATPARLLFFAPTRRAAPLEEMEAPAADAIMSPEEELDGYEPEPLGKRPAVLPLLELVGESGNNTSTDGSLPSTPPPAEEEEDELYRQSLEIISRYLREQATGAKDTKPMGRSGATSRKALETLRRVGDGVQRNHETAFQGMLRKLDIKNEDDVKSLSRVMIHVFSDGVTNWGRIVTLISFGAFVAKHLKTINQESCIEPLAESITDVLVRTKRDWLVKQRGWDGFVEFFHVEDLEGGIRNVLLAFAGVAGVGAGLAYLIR

[6] = biological target: Eukaryotic translation initiation factor 4E (Mus musculus, UniProt P63073); experiment: blockers of eIF4G binding by eIF4E – biochemical, TR-FRET, dose response (AID 855); assay type: functional;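 note: potency for disrupting eIF4E binding to eIF4GI seen as loss of FRET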
Sequence of Eukaryotic translation initiation factor 4E (P63073 whole entry): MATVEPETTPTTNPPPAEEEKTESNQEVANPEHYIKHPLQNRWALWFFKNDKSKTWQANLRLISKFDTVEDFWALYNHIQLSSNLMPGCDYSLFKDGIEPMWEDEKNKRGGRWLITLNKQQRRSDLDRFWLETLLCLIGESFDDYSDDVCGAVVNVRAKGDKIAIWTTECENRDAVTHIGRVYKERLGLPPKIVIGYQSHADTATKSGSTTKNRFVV

Estrogen receptor = biological target: T1, Estrogen receptor (Homo sapiens, UniProt P03372);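 note: potency for inhibiting coactivator peptide recruitment to the receptor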
T1 sequence (P03372 whole entry): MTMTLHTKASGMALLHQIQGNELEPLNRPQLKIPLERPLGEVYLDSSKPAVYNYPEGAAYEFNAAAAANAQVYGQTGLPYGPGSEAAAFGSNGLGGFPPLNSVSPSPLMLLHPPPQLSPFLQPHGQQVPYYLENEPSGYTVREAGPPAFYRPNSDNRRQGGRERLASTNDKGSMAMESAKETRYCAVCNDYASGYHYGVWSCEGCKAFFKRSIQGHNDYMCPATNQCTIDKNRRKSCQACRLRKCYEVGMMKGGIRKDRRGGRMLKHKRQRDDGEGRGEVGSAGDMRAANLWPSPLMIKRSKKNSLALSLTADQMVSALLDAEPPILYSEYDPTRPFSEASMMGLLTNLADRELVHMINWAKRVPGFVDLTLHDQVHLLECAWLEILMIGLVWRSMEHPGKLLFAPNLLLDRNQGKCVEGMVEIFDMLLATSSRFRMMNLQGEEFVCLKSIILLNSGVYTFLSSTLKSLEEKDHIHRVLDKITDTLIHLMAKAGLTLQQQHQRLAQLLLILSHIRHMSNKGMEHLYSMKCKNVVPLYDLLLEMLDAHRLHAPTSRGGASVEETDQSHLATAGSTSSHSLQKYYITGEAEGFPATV

[7] = biological target: T2, Mannose-6-phosphate isomerase (Homo sapiens, UniProt P34949); experiment: MPI inhibition at elevated mannose 6-phosphate – biochemical, fluorescence intensity, high mannose 6-phosphate, primary screen (AID 1220)
T2 sequence (P34949 whole entry): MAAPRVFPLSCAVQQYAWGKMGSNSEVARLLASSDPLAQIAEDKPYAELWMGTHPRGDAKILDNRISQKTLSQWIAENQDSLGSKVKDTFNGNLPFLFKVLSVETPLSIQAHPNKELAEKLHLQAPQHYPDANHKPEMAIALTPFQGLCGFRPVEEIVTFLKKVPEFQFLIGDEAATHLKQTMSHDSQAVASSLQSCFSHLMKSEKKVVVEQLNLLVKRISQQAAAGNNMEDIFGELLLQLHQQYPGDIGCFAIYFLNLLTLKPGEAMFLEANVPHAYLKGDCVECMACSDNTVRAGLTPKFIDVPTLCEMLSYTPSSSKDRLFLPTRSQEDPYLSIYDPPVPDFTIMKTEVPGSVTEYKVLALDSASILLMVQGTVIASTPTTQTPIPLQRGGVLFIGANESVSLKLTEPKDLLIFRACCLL

[8] = OVCAR-3 cell viability loss – plate reader, dry powder samples, PAX8 inhibitor project, dose response (AID 743044); assay type: functional, cell-based
[9] = Trypanosoma cruzi growth suppression in host cells – NIH3T3 host cells, beta-gal luminescence, confirmation (AID 2044); assay type: functional, cell-based;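 note: intracellular parasites grown in NIH/3T3 mouse fibroblasts as host cells; luminescent beta-galactosidase reporter signal from transgenic T. cruzi replicating inside host cells; inhibitors lower the luminescence signal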
[10] = NIH3T3 cell viability loss – ATP luminescence, mouse fibroblasts, counter-screen, dose response (AID 2010); assay type: functional, cell-based;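 note: cells exposed to compound for about 90 hours before reading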
Nonstructural protein 1 = Nonstructural protein 1 (Influenza A virus, UniProt Q194T2); assay type: functional, Influenza A virus (A/California/07/2009(H1N1))
Sequence of Nonstructural protein 1 (Q194T2 whole entry): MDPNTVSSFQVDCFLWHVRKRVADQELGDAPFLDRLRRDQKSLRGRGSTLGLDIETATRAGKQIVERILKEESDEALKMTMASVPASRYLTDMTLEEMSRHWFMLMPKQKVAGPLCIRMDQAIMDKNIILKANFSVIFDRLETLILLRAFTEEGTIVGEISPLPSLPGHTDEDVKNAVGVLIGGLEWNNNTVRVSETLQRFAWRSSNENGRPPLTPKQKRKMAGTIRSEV

[11] = HEK-293T cell viability reduction – luminescence, B-cell screen hits, cytotoxicity control for BCR NF-kB inhibitor project, dose response (AID 489021); assay type: functional, cell-based;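 note: HEK-293T cells carrying an NF-kB luciferase reporter; cells exposed to compound for about 14 hours before viability readout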
[12] = reduction of Shn3 3'UTR-driven luciferase in osteoblasts – cell-based, Clone20 osteoblasts, firefly luciferase, cherry-picked, dose response (AID 624132); assay type: functional;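 note: firefly luciferase luminescence from reporter carrying the Shn3 3'UTR in osteoblasts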
[13] = loss of viability in HepG2 cells – cell-based, CellTiter-Glo, cherry-picked, cytotoxicity control for Shn3 inhibitor project, dose response (AID 624134); assay type: functional
[14] = biological target: T3, COUP transcription factor 2 (Homo sapiens, UniProt P24468); experiment: Luminescence-based cell-based high throughput dose response assay to identify inhibitors of COUP-TFII (NR2F2).; assay type: functional;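 note: HEK293 cells transiently cotransfected with COUP-TFII expression vector and reporter; luciferase reporter luminescence driven by COUP-TFII from the pX2-168 reporter plasmid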
T3 sequence (P24468 whole entry): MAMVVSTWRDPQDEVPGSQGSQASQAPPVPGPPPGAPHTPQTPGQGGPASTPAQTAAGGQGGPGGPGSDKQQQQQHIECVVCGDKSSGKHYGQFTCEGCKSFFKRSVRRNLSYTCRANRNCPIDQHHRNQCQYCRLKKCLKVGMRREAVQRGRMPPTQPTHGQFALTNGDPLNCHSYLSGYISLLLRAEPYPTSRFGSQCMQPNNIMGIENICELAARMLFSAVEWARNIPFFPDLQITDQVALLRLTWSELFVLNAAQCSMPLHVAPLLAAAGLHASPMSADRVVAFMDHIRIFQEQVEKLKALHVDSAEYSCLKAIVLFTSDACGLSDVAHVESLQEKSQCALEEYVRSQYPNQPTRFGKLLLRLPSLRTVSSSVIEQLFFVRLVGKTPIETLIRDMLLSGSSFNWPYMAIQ

[15] = viability inhibitors of stage V gametocytes – luminescence, dose response (AID 1117278); assay type: functional, cell-based;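 note: gametocytes exposed to compound for 24 hours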
[16] = viability loss in human Jurkat cells – cell-based, luminescence, cytotoxicity control for P. falciparum gametocyte viability project, dose response (AID 1117277); assay type: functional;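 note: potency reflects loss of cellular ATP meaning fewer viable cells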
[17] = viability of uninfected HEp-2 cells – cell-based, HTS, cytotoxicity control for RSV inhibitor project, dose response (AID 2410); assay type: functional; details: human respiratory syncytial virus
[18] = blockers of HIV-1 envelope-mediated cell-cell fusion – cherry-pick, dose response (AID 652057); assay type: functional, cell-based
[19] = blockers of HIV-1 ZM109 envelope-driven cell-cell fusion – HeLa effector, CEM target cells, luciferase, cherry-pick, dose response (AID 652058); assay type: functional, cell-based;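 note: luciferase signal from HIV-1 Env mediated cell-cell fusion of effector and target cells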
[20] = off-target signal loss in HeLa-CEM21 co-culture – HeLa F-luc CTL cells, cherry-picked, counter-screen for HIV-1 Env fusion inhibitor project, dose response (AID 652040); assay type: functional, cell-based;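 note: potency for signal decrease marking cytotoxic or nonspecific inhibition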
[21] = HIV-1 AD8 envelope cell-cell fusion blockers – cherry-pick, dose response (AID 652062); assay type: functional, cell-based;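 note: luciferase signal from cell-cell fusion driven by HIV-1 clade B AD8 Env; potency is for inhibitors of fusion seen as a drop in luminescence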
[22] = biological target: T4, Carboxy-terminal domain RNA polymerase II polypeptide A small phosphatase 1 (Homo sapiens, UniProt Q9GZU7); experiment: CTDSP1 inhibitors, concentration-response, biochemical, absorbance readout, ultra-high-throughput screen actives (AID 540297); assay type: functional
T4 sequence (Q9GZU7 whole entry): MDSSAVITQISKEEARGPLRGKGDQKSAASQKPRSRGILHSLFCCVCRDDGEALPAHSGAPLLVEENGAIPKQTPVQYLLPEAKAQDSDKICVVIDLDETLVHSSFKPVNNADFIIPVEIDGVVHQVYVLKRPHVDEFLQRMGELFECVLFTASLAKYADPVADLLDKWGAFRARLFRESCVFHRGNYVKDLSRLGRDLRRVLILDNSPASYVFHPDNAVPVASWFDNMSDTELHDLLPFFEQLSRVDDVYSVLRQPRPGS

For C[C@@H]1CCCCO[C@@H](CN(C)Cc2ccc(Cl)c(Cl)c2)[C@H](C)CN([C@H](C)CO)C(=O)c2cc(NS(=O)(=O)c3ccc(Cl)cc3)ccc2O1, the AC50 (Paired box protein Pax-8) was 8.68 µM (active), the AC50 [1] was 59.2 µM (active) and the AC50 [2] was > 70 µM (inactive).

For CCN1C(NCC2CC2)=N[C@@H](c2cccc(C(F)(F)F)c2)C(C(=O)OC)=C1C, the IC50 [3] was 4.22 µM (active) and the IC50 [4] was 6.71 µM (active).

In the case of COc1cc(/C=C(/C#N)C(=O)NCCCc2ccccc2)ccc1OCC(=O)O, the IC50 [3] is reported as 1.61 µM (active) and the IC50 [4] is reported as 3.23 µM (active).

For NC(=O)c1c(NC(=O)Cn2nc(C(=O)O)c3ccccc3c2=O)sc2c1CCCC2, the IC50 (Prothrombin) was 24.3 µM (active).

With CS(=O)(=O)Nc1cccc(C(=O)CC2(O)C(=O)Nc3ccc(Br)cc32)c1 (stereo unspecified) the IC50 (Prothrombin) was 0.525 µM (active).

With Cc1ccc(CNC(=O)c2ccc(-n3cccc3)cc2)cc1 the IC50 [5] was 3.27 µM (active) and the IC50 [6] was 50 µM (inactive).

For COCC(=O)n1nc(-c2ccccc2)nc1NCc1cccs1, the IC50 (Prothrombin) was 0.467 µM (active).

In the case of Cc1ccc(Nc2nnc(SCC(=O)NCc3ccco3)s2)cc1, the IC50 (Estrogen receptor) is reported as 28.8 µM (active).

For Cc1ccc(Cl)cc1NS(=O)(=O)c1c(C)[nH]c(=O)[nH]c1=O, the IC50 (Prothrombin) was > 50 µM (not active).

For CCC(C)N1C(=O)NC(=O)C2(Cc3c(ccc4ccccc34)N(C)C2)C1=O (stereo unspecified), the IC50 [7] was > 50 µM (not active).

With OCC(CO)(CO)/N=C/c1c(O)ccc2ccccc12 the IC50 [7] was 38.6 µM (active).

For O=C(c1ccccc1F)N1CC(=O)N2[C@@H](CO)[C@@H](c3ccc(C#Cc4ccc(F)cc4)cc3)[C@@H]2C1, the AC50 (Paired box protein Pax-8) was 5.77 µM (active), the AC50 [8] was 8.76 µM (active) and the AC50 [1] was 19.2 µM (active). The AC50 [2] was 41.1 µM (active).

For N#C/C(=C\C1=C(N2CCOCC2)C(=C\c2ccccc2)/CC1)C(=O)Nc1ccccc1F, the EC50 [9] was 1.01 µM (active), the EC50 [10] was > 60 µM (not active) and the IC50 (Nonstructural protein 1) was 13.3 µM (active).

For COc1ccc(N2CC(C(=O)N/N=C/c3cc([N+](=O)[O-])ccc3O)CC2=O)cc1 (stereo unspecified), the IC50 (Nonstructural protein 1) was 17.8 µM (active).

In the case of S=C(Nc1ccc2c[nH]nc2c1)Nc1ccc(Cl)cc1Cl, the IC50 [7] is reported as > 50 µM (not active).

In the case of C[C@@H]1CCCCO[C@@H](CN(C)Cc2ccc(C(F)(F)F)cc2)[C@H](C)CN([C@@H](C)CO)C(=O)c2cc(NC(=O)NC3CCCCC3)ccc2O1, the AC50 (Paired box protein Pax-8) is reported as 8.39 µM (active), the AC50 [8] is reported as 45.2 µM (active) and the AC50 [1] is reported as 50.9 µM (active). For the same compound, the AC50 [2] was 37.5 µM (active).

In the case of COC(=O)C1=C(c2ccc(-c3ccccc3)c(F)c2)C[C@@H]2CC[C@H]1N2C(=O)N1CCCC1, the IC50 [11] is reported as > 80 µM (inactive), the AC50 [12] is reported as 6.06 µM (active) and the AC50 [13] is reported as 6.77 µM (active). For the same compound, the IC50 [14] was 8.17 µM (active).

In the case of CCc1ccc2[nH]c(=O)c(CN(Cc3ccc4c(c3)OCO4)C(=O)c3ccco3)cc2c1, the IC50 (Estrogen receptor) is reported as 26.2 µM (active).

In the case of Cc1ccc(C(=O)NC(C)C(c2cccs2)N2CCCC2)s1 (stereo unspecified), the IC50 (Prothrombin) is reported as > 50 µM (not active), the IC50 [15] is reported as > 109 µM (inactive) and the IC50 [16] is reported as > 83.3 µM (inactive).

For COc1ccccc1NC(=O)CSc1nnc(-c2ccc(NC(C)=O)cc2)n1C, the IC50 [15] was > 109 µM (inactive) and the IC50 [16] was > 83.3 µM (inactive).

For CC(Cc1ccccn1)NC(=O)CCc1nnc(C2CCCCC2)o1 (stereo unspecified), the IC50 [15] was > 109 µM (inactive) and the IC50 [16] was > 83.3 µM (inactive).

For Cc1ccc(-n2nc3c(=O)n(C(C)C(=O)NCCC4=CCCCC4)nc(C)c3c2C)cc1 (stereo unspecified), the IC50 [14] was 6.62 µM (active).

With COc1ccc(OC)c(NS(=O)(=O)c2ccc(NC(C)=O)cc2)c1 the IC50 [15] was > 109 µM (inactive) and the IC50 [16] was > 83.3 µM (inactive).

In the case of CCOC(=O)C1=C(Nc2ccc(OC)cc2)S/C(=C\c2cc(OC)c(O)c(OC)c2)C1=O, the IC50 [5] is reported as 4.24 µM (not active).

With CC(=O)NCCOC(=O)Nc1ccncc1 the IC50 (Estrogen receptor) was > 50 µM (not active).

With O=C(CCC(=O)N1CCN(S(=O)(=O)c2ccc3ccccc3c2)CC1)Nc1cc(Cl)cc(Cl)c1 the CC50 [17] was > 6.25 µM (active), the AC50 [18] was 3.61 µM (active) and the AC50 [19] was 4.28 µM (active). The AC50 [20] was 6.16 µM (active) and the AC50 [21] was 14.2 µM (active).

With Cc1onc(-c2ccccc2Cl)c1C(=O)NCCN1CCOCC1 the IC50 [15] was > 109 µM (inactive) and the IC50 [16] was > 83.4 µM (inactive).

In the case of COc1ccccc1/C=c1\sc2nc(-c3ccco3)nn2c1=O, the IC50 (Estrogen receptor) is reported as 17.5 µM (active), the IC50 [5] is reported as 7.38 µM (active) and the IC50 [22] is reported as 5 µM (active).
